Reference: the supplement of paper PMC13207355
Counter-ions that a name gives are not always drawn.

Experiments:
Conditions in all cases: exposure time: 72 h
E13 [1] = patient-derived glioblastoma stem cells of classical subtype; assay: surviving fraction (nuclei count normalised to DMSO); higher = more cells surviving (less toxic)
E21 [2] = patient-derived glioblastoma stem cells of mesenchymal subtype; assay: as above
E28 [3] = patient-derived glioblastoma stem cells of classical subtype; assay: as above
E31 [4] = patient-derived glioblastoma stem cells of proneural subtype; assay: as above
E34 [5] = patient-derived glioblastoma stem cells of proneural subtype; assay: as above
E57 [6] = patient-derived glioblastoma stem cells of mesenchymal subtype; assay: as above
FT3469 [7] = normal neural stem cell line; assay: as above
E13 [8] = assay: phenotypic distance (Euclidean, principal components) from DMSO controls (arbitrary units); higher = stronger morphological change
E21 [9] = assay: as above
E28 [10] = assay: as above
E31 [11] = assay: as above
E34 [12] = assay: as above
E57 [13] = assay: as above
FT3469 [14] = assay: as above
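Throughout, for phenotypic distance (Euclidean, principal components) from DMSO controls: cell Painting imaging in 384-well plates, CellProfiler features reduced to at least 20 principal components, Euclidean distance versus same-plate DMSO vehicle wells (0.1% v/v), median over six images per well.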
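Throughout, for surviving fraction (nuclei count normalised to DMSO): nuclei counted by high-content imaging of Hoechst-stained cells in laminin-coated 384-well plates, relative to 0.1% DMSO vehicle wells, with staurosporine as cell-death control.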

COc1cc([C@@H]2c3cc4c(cc3[C@H](O)[C@H]3COC(=O)[C@H]23)OCO4)cc(OC)c1OC [Podophyllotoxin]
Conditions	phenotypic distance	surviving fraction
E13 [1], 4.1 nM	–	0.153
E13 [1], 12.3 nM	–	0.182
E13 [1], 37 nM	–	0.139
E13 [1], 111.1 nM	–	0.182
E13 [1], 333.3 nM	–	0.123
E13 [1], 1000 nM	–	0.197
E13 [1], 3000 nM	–	0.112
E13 [8], 4.1 nM	6.81	–
E13 [8], 12.3 nM	7.76	–
E13 [8], 37 nM	6.3	–
E13 [8], 111.1 nM	8.14	–
E13 [8], 333.3 nM	7.56	–
E13 [8], 1000 nM	9.37	–
E13 [8], 3000 nM	9.25	–
E21 [2], 4.1 nM	–	0.115
E21 [2], 12.3 nM	–	0.113
E21 [2], 37 nM	–	0.0947
E21 [2], 111.1 nM	–	0.0585
E21 [2], 333.3 nM	–	0.0628
E21 [2], 1000 nM	–	0.0607
E21 [2], 3000 nM	–	0.0362
E21 [9], 4.1 nM	8.85	–
E21 [9], 12.3 nM	8.76	–
E21 [9], 37 nM	8.54	–
E21 [9], 111.1 nM	8.65	–
E21 [9], 333.3 nM	8.16	–
E21 [9], 1000 nM	8.89	–
E21 [9], 3000 nM	8.66	–
E28 [3], 4.1 nM	–	0.354
E28 [3], 12.3 nM	–	0.369
E28 [3], 37 nM	–	0.324
E28 [3], 111.1 nM	–	0.265
E28 [3], 333.3 nM	–	0.22
E28 [3], 1000 nM	–	0.209
E28 [3], 3000 nM	–	0.198
E28 [10], 4.1 nM	3.02	–
E28 [10], 12.3 nM	3.22	–
E28 [10], 37 nM	4.05	–
E28 [10], 111.1 nM	5.71	–
E28 [10], 333.3 nM	5.89	–
E28 [10], 1000 nM	6.42	–
E28 [10], 3000 nM	6.86	–
E31 [4], 4.1 nM	–	0.0505
E31 [4], 12.3 nM	–	0.0728
E31 [4], 37 nM	–	0.0565
E31 [4], 111.1 nM	–	0.0446
E31 [4], 333.3 nM	–	0.0282
E31 [4], 1000 nM	–	0.0371
E31 [4], 3000 nM	–	0.0297
E31 [11], 4.1 nM	5.03	–
E31 [11], 12.3 nM	5.75	–
E31 [11], 37 nM	7.75	–
E31 [11], 111.1 nM	13.3	–
E31 [11], 333.3 nM	11.2	–
E31 [11], 1000 nM	14.3	–
E31 [11], 3000 nM	13.5	–
E34 [5], 4.1 nM	–	0.471
E34 [5], 12.3 nM	–	0.378
E34 [5], 37 nM	–	0.31
E34 [5], 111.1 nM	–	0.339
E34 [5], 333.3 nM	–	0.32
E34 [5], 1000 nM	–	0.329
E34 [5], 3000 nM	–	0.249
E34 [12], 4.1 nM	4.47	–
E34 [12], 12.3 nM	4.98	–
E34 [12], 37 nM	6.57	–
E34 [12], 111.1 nM	8.02	–
E34 [12], 333.3 nM	7.55	–
E34 [12], 1000 nM	9.53	–
E34 [12], 3000 nM	9.18	–
E57 [6], 4.1 nM	–	0.0665
E57 [6], 12.3 nM	–	0.0974
E57 [6], 37 nM	–	0.0586
E57 [6], 111.1 nM	–	0.0625
E57 [6], 333.3 nM	–	0.089
E57 [6], 1000 nM	–	0.0755
E57 [6], 3000 nM	–	0.0653
E57 [13], 4.1 nM	6.96	–
E57 [13], 12.3 nM	6.65	–
E57 [13], 37 nM	7.38	–
E57 [13], 111.1 nM	5.64	–
E57 [13], 333.3 nM	6.77	–
E57 [13], 1000 nM	7.07	–
E57 [13], 3000 nM	6.6	–
FT3469 [7], 4.1 nM	–	0.517
FT3469 [7], 12.3 nM	–	0.541
FT3469 [7], 37 nM	–	0.375
FT3469 [7], 111.1 nM	–	0.377
FT3469 [7], 333.3 nM	–	0.433
FT3469 [7], 1000 nM	–	0.416
FT3469 [7], 3000 nM	–	0.379
FT3469 [14], 4.1 nM	4.23	–
FT3469 [14], 12.3 nM	5.67	–
FT3469 [14], 37 nM	4.76	–
FT3469 [14], 111.1 nM	6.26	–
FT3469 [14], 333.3 nM	5.78	–
FT3469 [14], 1000 nM	5.4	–
FT3469 [14], 3000 nM	6.63	–

COc1cc2nc(N3CCN(C(=O)c4ccco4)CC3)nc(N)c2cc1OC [Prazosin hydrochloride]
Conditions	phenotypic distance	surviving fraction
E13 [1], 4.11523 nM	–	1.11
E13 [1], 12.34567901 nM	–	0.996
E13 [1], 37.037 nM	–	1.07
E13 [1], 111.1111111 nM	–	0.955
E13 [1], 333.333 nM	–	1.04
E13 [1], 1000 nM	–	1.03
E13 [1], 3000 nM	–	0.815
E13 [8], 4.11523 nM	0.601	–
E13 [8], 12.34567901 nM	3.49	–
E13 [8], 37.037 nM	2.1	–
E13 [8], 111.1111111 nM	0.55	–
E13 [8], 333.333 nM	0.666	–
E13 [8], 1000 nM	0.512	–
E13 [8], 3000 nM	2.04	–
E21 [2], 4.11523 nM	–	1.03
E21 [2], 12.34567901 nM	–	1.03
E21 [2], 37.037 nM	–	1
E21 [2], 111.1111111 nM	–	1.04
E21 [2], 333.333 nM	–	1.11
E21 [2], 1000 nM	–	0.938
E21 [2], 3000 nM	–	0.912
E21 [9], 4.11523 nM	0.712	–
E21 [9], 12.34567901 nM	0.547	–
E21 [9], 37.037 nM	0.834	–
E21 [9], 111.1111111 nM	0.524	–
E21 [9], 333.333 nM	0.736	–
E21 [9], 1000 nM	0.384	–
E21 [9], 3000 nM	0.699	–
E28 [3], 4.11523 nM	–	1.07
E28 [3], 12.34567901 nM	–	0.881
E28 [3], 37.037 nM	–	1.17
E28 [3], 111.1111111 nM	–	0.956
E28 [3], 333.333 nM	–	1.2
E28 [3], 1000 nM	–	0.907
E28 [3], 3000 nM	–	0.976
E28 [10], 4.11523 nM	0.643	–
E28 [10], 12.34567901 nM	0.664	–
E28 [10], 37.037 nM	1.1	–
E28 [10], 111.1111111 nM	0.589	–
E28 [10], 333.333 nM	0.766	–
E28 [10], 1000 nM	1.03	–
E28 [10], 3000 nM	0.426	–
E31 [4], 4.11523 nM	–	0.988
E31 [4], 12.34567901 nM	–	1.19
E31 [4], 37.037 nM	–	1.13
E31 [4], 111.1111111 nM	–	1.03
E31 [4], 333.333 nM	–	1.04
E31 [4], 1000 nM	–	1.07
E31 [4], 3000 nM	–	1
E31 [11], 4.11523 nM	0.642	–
E31 [11], 12.34567901 nM	0.488	–
E31 [11], 37.037 nM	0.739	–
E31 [11], 111.1111111 nM	0.653	–
E31 [11], 333.333 nM	0.984	–
E31 [11], 1000 nM	0.431	–
E31 [11], 3000 nM	0.892	–
E34 [5], 4.11523 nM	–	1.04
E34 [5], 12.34567901 nM	–	0.994
E34 [5], 37.037 nM	–	1.14
E34 [5], 111.1111111 nM	–	0.986
E34 [5], 333.333 nM	–	1.11
E34 [5], 1000 nM	–	0.837
E34 [5], 3000 nM	–	1.04
E34 [12], 4.11523 nM	0.522	–
E34 [12], 12.34567901 nM	0.593	–
E34 [12], 37.037 nM	0.611	–
E34 [12], 111.1111111 nM	0.647	–
E34 [12], 333.333 nM	0.638	–
E34 [12], 1000 nM	0.628	–
E34 [12], 3000 nM	0.776	–
E57 [6], 4.11523 nM	–	1.07
E57 [6], 12.34567901 nM	–	1.02
E57 [6], 37.037 nM	–	1.09
E57 [6], 111.1111111 nM	–	0.961
E57 [6], 333.333 nM	–	1
E57 [6], 1000 nM	–	0.915
E57 [6], 3000 nM	–	0.97
E57 [13], 4.11523 nM	0.592	–
E57 [13], 12.34567901 nM	0.576	–
E57 [13], 37.037 nM	0.642	–
E57 [13], 111.1111111 nM	0.745	–
E57 [13], 333.333 nM	0.475	–
E57 [13], 1000 nM	0.697	–
E57 [13], 3000 nM	0.95	–
FT3469 [7], 4.11523 nM	–	1
FT3469 [7], 12.34567901 nM	–	1.14
FT3469 [7], 37.037 nM	–	1.03
FT3469 [7], 111.1111111 nM	–	1.05
FT3469 [7], 333.333 nM	–	1.14
FT3469 [7], 1000 nM	–	1.12
FT3469 [7], 3000 nM	–	1.06
FT3469 [14], 4.11523 nM	0.634	–
FT3469 [14], 12.34567901 nM	0.798	–
FT3469 [14], 37.037 nM	0.909	–
FT3469 [14], 111.1111111 nM	0.541	–
FT3469 [14], 333.333 nM	0.436	–
FT3469 [14], 1000 nM	0.748	–
FT3469 [14], 3000 nM	0.762	–
